Where only a bound is given, the exact number is not on record here.

We go through twelve compounds from patent US20260028343A1, “Substituted Imidazopyrazine Compounds as Ligand Directed Degraders of IRAK3” (Celgene Corporation, priority 2022, published 2026).

The target of the test is T1, IRAK3 (Homo sapiens, UniProt Q9Y616).
T1 construct: IRAK Endogenous HTRF Degradation Assay; endogenous in cells
T1 sequence (Q9Y616 1-596): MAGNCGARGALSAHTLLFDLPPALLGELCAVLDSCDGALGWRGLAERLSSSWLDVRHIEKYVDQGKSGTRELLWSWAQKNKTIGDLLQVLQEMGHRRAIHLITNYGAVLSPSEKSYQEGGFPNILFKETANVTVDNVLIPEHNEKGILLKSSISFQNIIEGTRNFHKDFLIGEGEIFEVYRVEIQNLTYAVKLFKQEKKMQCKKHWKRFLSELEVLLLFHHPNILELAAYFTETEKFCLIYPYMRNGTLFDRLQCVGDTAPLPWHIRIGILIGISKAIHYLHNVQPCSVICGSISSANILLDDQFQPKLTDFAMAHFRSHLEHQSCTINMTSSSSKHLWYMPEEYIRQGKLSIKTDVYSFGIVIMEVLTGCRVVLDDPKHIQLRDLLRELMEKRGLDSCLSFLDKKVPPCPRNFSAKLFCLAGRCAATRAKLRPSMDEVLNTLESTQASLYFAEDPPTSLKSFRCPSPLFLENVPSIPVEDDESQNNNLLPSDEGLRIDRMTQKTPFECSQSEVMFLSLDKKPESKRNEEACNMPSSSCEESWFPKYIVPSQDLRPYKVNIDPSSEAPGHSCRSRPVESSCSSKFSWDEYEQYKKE
The test can be described thus: IRAK Endogenous HTRF Degradation Assay. The format is cell-based. The following applies: endogenous IRAK3, overnight incubation; for Dmax: % Dmax=100−Ymin; for DC50: concentration at which 50% degradation is achieved. The protocol:
Cells (˜50 k) were plated in Cisbio 96-well low volume white plates (Cisbio: cat #66PL96005). Compounds were dissolved in DMSO and a 3-fold serial dilution was performed using a TECAN D300E. Cells were incubated with the compound overnight. Total-IRAK3 HTRF kit from Cisbio was used for degradation analysis (Cisbio: 63ADK101PEH). Cryptate and D2 antibodies were diluted in Detection buffer as per manufacturers recommendation. Then 2 μL of each solution was added to 16 μL lysate. Buffer control (lysis buffer detection buffer), Cryptate control (lysis buffer+cryptate antibody+detection buffer), and Negative control (lysis buffer+cryptate antibody+D2 antibody) were made as per manufacturers recommendation. Post incubation with antibodies the HTRF signal was measured using a Perkin Elmer Envision reader and the HTRF signal was calculated using formula: (Emission at 665 nm/Emission at 615 nm)*10,000. All HTRF values were normalized to the average value of DMSO. The average value of the DMSO control wells were set to equal 100% of the relative IRAK3 protein levels. Normalized luminescence values were plotted on a graph as a function of compound concentration. Compound concentration was plotted on the x-axis and the corresponding normalized IRAK3 protein levels on the y-axis. The EC50 value (the half-maximum effective concentration) of a compound for the degradation of the IRAK3 was calculated using a four-parameter logistic model (sigmoidal dose−response model)(FIT=(A+{(B−A)/1+[(C/x)D]})) where C is the inflection point (EC50), D is the […], and A and B are the low and high limits of the fit, respectively). The Ymin was calculated by determining the lowest percentage of target protein remaining following compound treatment. Dmax was calculated from Ymin (% Dmax=100−Ymin).
Using these assays, IC50, Dmax, EC50, and DC50 values of the following compounds were determined. Dmax is defined as the maximum percent degradation achieved and DC50 is the concentration at which 50% degradation is achieved.
Background: TR-FRET usually uses a lanthanide donor and a delayed reading to cut background.

In general, Dmax refers to the largest share of the target that was removed. Low values mean a partial loss of target, high ones a fuller loss of target. What is called DC50 is the concentration giving 50% degradation. With `Cc1cccc(-c2cnc(Nc3ccc(N4CCN(C(=O)COc5cccc6c5C(=O)N(C5CCC(=O)NC5=O)C6=O)CC4)cc3)c3nccn23)c1` (stereo not drawn) [Compound 1, 2-(2,6-Dioxopiperidin-3-yl)-4-(2-oxo-2-(4-(4-((5-(m-tolyl)imidazo[1,2-a]pyrazin-8-yl)amino)phenyl)piperazin-1-yl)ethoxy)isoindoline-1,3-dione], the Dmax came out at 7% and the DC50 is above 10 µM.
With `Cc1cccc(-c2cnc(Nc3ccc(N4CCN(C(=O)CCCNC(=O)COc5cccc6c5C(=O)N(C5CCC(=O)NC5=O)C6=O)CC4)cc3)c3nccn23)c1` (stereo not drawn) [Compound 2, 2-((2-(2,6-Dioxopiperidin-3-yl)-1,3-dioxoisoindolin-4-yl)oxy)-N-(4-oxo-4-(4-(4-((5-(m-tolyl)imidazo[1,2-a]pyrazin-8-yl)amino)phenyl)piperazin-1-yl)butyl)acetamide], the Dmax was 13% and the DC50 is above 10 µM.
In the same order, the values of `Cc1cccc(-c2cnc(Nc3ccc(N4CCN(C(=O)CCOCCNC(=O)COc5cccc6c5C(=O)N(C5CCC(=O)NC5=O)C6=O)CC4)cc3)c3nccn23)c1` (stereo not drawn) [Compound 3, 2-((2-(2,6-Dioxopiperidin-3-yl)-1,3-dioxoisoindolin-4-yl)oxy)-N-(2-(3-oxo-3-(4-(4-((5-(m-tolyl)imidazo[1,2-a]pyrazin-8-yl)amino)phenyl)piperazin-1-yl)propoxy)ethyl)acetamide] are 3% and above 10 µM.
In the same order, the values of `Cc1cccc(-c2cnc(Nc3ccc(N4CCN(C(=O)COc5ccc6c(c5)C(=O)N(C5CCC(=O)NC5=O)C6=O)CC4)cc3)c3nccn23)c1` (stereo not drawn) [Compound 4, 2-(2,6-Dioxopiperidin-3-yl)-5-(2-oxo-2-(4-(4-((5-(m-tolyl)imidazo[1,2-a]pyrazin-8-yl)amino)phenyl)piperazin-1-yl)ethoxy)isoindoline-1,3-dione] are 4% and above 10 µM.
Taken in the same sequence, the figures for `Cc1cccc(-c2cnc(Nc3ccc(N4CCN(C(=O)CCCNC(=O)COc5ccc6c(c5)C(=O)N(C5CCC(=O)NC5=O)C6=O)CC4)cc3)c3nccn23)c1` (stereo not drawn) [Compound 5, 2-((2-(2,6-Dioxopiperidin-3-yl)-1,3-dioxoisoindolin-5-yl)oxy)-N-(4-oxo-4-(4-(4-((5-(m-tolyl)imidazo[1,2-a]pyrazin-8-yl)amino)phenyl)piperazin-1-yl)butyl)acetamide] were 18% and above 10 µM.
Consider `Cc1cccc(-c2cnc(Nc3ccc(N4CCN(C(=O)CCOCCNC(=O)COc5ccc6c(c5)C(=O)N(C5CCC(=O)NC5=O)C6=O)CC4)cc3)c3nccn23)c1` (stereo not drawn) [Compound 6, 2-((2-(2,6-Dioxopiperidin-3-yl)-1,3-dioxoisoindolin-5-yl)oxy)-N-(2-(3-oxo-3-(4-(4-((5-(m-tolyl)imidazo[1,2-a]pyrazin-8-yl)amino)phenyl)piperazin-1-yl)propoxy)ethyl)acetamide], for which the Dmax came out at 13% and the DC50 was above 10 µM.
`Cc1cccc(-c2cnc(Nc3ccc(N4CCN(CCNC(=O)COc5ccc6c(c5)C(=O)N(C5CCC(=O)NC5=O)C6=O)CC4)cc3)c3nccn23)c1` (stereo not drawn) [Compound 7, 2-((2-(2,6-Dioxopiperidin-3-yl)-1,3-dioxoisoindolin-5-yl)oxy)-N-(2-(4-(4-((5-(m-tolyl)imidazo[1,2-a]pyrazin-8-yl)amino)phenyl)piperazin-1-yl)ethyl)acetamide] had a Dmax of 27% and a DC50 above 10 µM.
In the same order, the values of `Cc1cccc(-c2cnc(Nc3cnn(C4CCN(CCNC(=O)COc5ccc6c(c5)C(=O)N(C5CCC(=O)NC5=O)C6=O)CC4)c3)c3nccn23)c1` (stereo not drawn) [Compound 8, 2-((2-(2,6-Dioxopiperidin-3-yl)-1,3-dioxoisoindolin-5-yl)oxy)-N-(2-(4-(4-((5-(m-tolyl)imidazo[1,2-a]pyrazin-8-yl)amino)-1H-pyrazol-1-yl)piperidin-1-yl)ethyl)acetamide] are 73% and 0.02 µM.
Regarding `Cc1cccc(-c2cnc(Nc3cccc(C4CCN(CCNC(=O)COc5ccc6c(c5)C(=O)N(C5CCC(=O)NC5=O)C6=O)CC4)c3)c3nccn23)c1` (stereo not drawn) [Compound 9, 2-((2-(2,6-Dioxopiperidin-3-yl)-1,3-dioxoisoindolin-5-yl)oxy)-N-(2-(4-(3-((5-(m-tolyl)imidazo[1,2-a]pyrazin-8-yl)amino)phenyl)piperidin-1-yl)ethyl)acetamide], the Dmax turned out to be 33% and the DC50 was above 10 µM.
On to `Cc1cccc(-c2cnc(Nc3ccc(C4CCN(CCNC(=O)COc5ccc6c(c5)C(=O)N(C5CCC(=O)NC5=O)C6=O)CC4)cc3)c3nccn23)c1` (stereo not drawn) [Compound 10, 2-((2-(2,6-Dioxopiperidin-3-yl)-1,3-dioxoisoindolin-5-yl)oxy)-N-(2-(4-(4-((5-(m-tolyl)imidazo[1,2-a]pyrazin-8-yl)amino)phenyl)piperidin-1-yl)ethyl)acetamide], for which the Dmax was found to be 30% and the DC50 is above 10 µM.
Taken in the same sequence, the figures for `Cc1cccc(-c2cnc(Nc3cccc(N4CCN(CCNC(=O)COc5ccc6c(c5)C(=O)N(C5CCC(=O)NC5=O)C6=O)CC4)c3)c3nccn23)c1` (stereo not drawn) [Compound 11, 2-((2-(2,6-Dioxopiperidin-3-yl)-1,3-dioxoisoindolin-5-yl)oxy)-N-(2-(4-(3-((5-(m-tolyl)imidazo[1,2-a]pyrazin-8-yl)amino)phenyl)piperazin-1-yl)ethyl)acetamide] were 21% and above 10 µM.
`Cc1cccc(-c2cnc(Nc3cnn(C4CCN(C5CCC6(CC5)CCN(C(=O)c5ccc7c(c5)CN(C5CCC(=O)NC5=O)C7=O)CC6)CC4)c3)c3nccn23)c1` (stereo not drawn) [Compound 12, 3-(1-Oxo-5-(9-(4-(4-((5-(m-tolyl)imidazo[1,2-a]pyrazin-8-yl)amino)-1H-pyrazol-1-yl)piperidin-1-yl)-3-azaspiro[5.5]undecane-3-carbonyl)isoindolin-2-yl)piperidine-2,6-dione] yielded a Dmax of 81% and a DC50 of 0.01 µM.
